{"source": "ChEMBL document CHEMBL3286103", "molecular_target": "T1, Vitamin D3 receptor A (Danio rerio) (UniProt Q9PTN2)", "T1 sequence (whole entry)": "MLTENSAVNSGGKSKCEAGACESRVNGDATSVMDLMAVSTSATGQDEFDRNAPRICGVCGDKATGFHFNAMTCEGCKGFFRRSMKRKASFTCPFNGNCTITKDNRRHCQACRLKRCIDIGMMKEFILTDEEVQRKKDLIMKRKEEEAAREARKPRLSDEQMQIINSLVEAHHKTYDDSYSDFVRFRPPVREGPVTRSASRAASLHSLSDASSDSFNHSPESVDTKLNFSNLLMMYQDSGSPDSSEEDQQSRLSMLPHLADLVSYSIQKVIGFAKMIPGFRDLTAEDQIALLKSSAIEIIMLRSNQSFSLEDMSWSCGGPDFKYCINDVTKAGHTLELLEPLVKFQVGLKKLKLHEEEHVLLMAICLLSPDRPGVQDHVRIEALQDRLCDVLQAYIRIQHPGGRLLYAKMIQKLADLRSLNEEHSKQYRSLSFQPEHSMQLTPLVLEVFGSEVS", "test": "Binding affinity to N-terminal His-tagged zebrafish VDR LBD (154 to 456) at 10 to 20-fold molar excess by ESI-MS analysis", "note": "Activity calls are given as the source filed them. The rule behind the calls is not given here.", "data": [{"compound": "C[C@H](CCC(=O)O)[C@H]1CC[C@H]2[C@@H]3CC[C@@H]4C[C@H](O)CC[C@]4(C)[C@H]3CC[C@]12C", "values": [{"measurement": "Activity", "value": "Active"}]}]}
